# Experimental data from PubChem BioAssay AID602167 (The Scripps Research Institute Molecular Screening Center, 2012).
# The source made the active and inactive calls. No rule for the calls is given here.
# Target: transactivating tegument protein VP16 (Human herpesvirus 1), as a GAL4-VP16 activation-domain luciferase reporter
# Assay: GAL4-VP16 reporter repression curves – cell-based, luminescence, high throughput, SRC3 series, counter-screen for SRC3 inhibitor project, dose response (AID 602167)
# Details: VP16 transactivation luciferase reporter cells
row,SMILES,IC50
1,CN(Cc1cnc2nc(N)nc(N)c2n1)c1ccc(C(=O)N[C@@H](CCC(=O)O)C(=O)O)cc1,> 35.9 µM (inactive)
2,Cc1ccc2nc(C(F)(F)F)c(C#N)c(N)c2c1,inactive
3,COc1cccc(F)c1C(C[N+](=O)[O-])c1c(N)n(C)c(=O)n(C)c1=O (stereo unspecified),5.01 µM
4,CC(=O)c1cccc(-c2csc3ncnc(Sc4nnnn4C)c23)c1,6.89 µM
5,O=c1[nH]c(O)c(N=Nc2ccc3c(c2)OCCO3)c(=O)[nH]1,inactive
6,Cc1cccc(C)c1NS(=O)(=O)c1ccc(-c2cnc(C3CC3)o2)cc1,> 12 µM (inactive)
7,O=c1[nH]c2ccccc2n1C1CCN(C(c2cccc3ccccc23)c2nnnn2-c2ccc3c(c2)OCCO3)CC1 (stereo unspecified),7.28 µM
8,Cc1cccc(NC(=O)c2cc(Cl)ccc2[N+](=O)[O-])c1,inactive
9,NC(=S)N/N=C1\CCOc2ccc(Cl)cc21,inactive
10,Cc1ncc(CO)c(/C=N/NC(=O)c2cc3c(s2)CCCC3)c1O,6.04 µM
11,CNC(=O)c1cccn(Cc2ccc(C(F)(F)F)cc2)c1=O,> 35.8 µM (inactive)
12,O=C(Nc1ccc(OCC(=O)N2CCOCC2)cc1)c1cncc(Br)c1,inactive
13,COc1cc2oc(=O)cc(-c3ccc(-c4ccc(CO)cc4)cc3)c2c(OC)c1OC,5.56 µM
14,CCc1ccc(/C=C2\SC(=S)N(CCCC(=O)NCCCN3CCOCC3)C2=O)cc1,inactive
15,Nc1ccc(Oc2ccccc2-c2ccccc2)cc1,inactive
16,Cc1ccc(/C=C2/SC(=S)N(CCCC(=O)Nc3ccc(O)cc3)C2=O)cc1,inactive
17,CC(=O)/C(N=Nc1ccc2c(c1)OCCO2)=C(\C)O,> 12 µM (inactive)
18,Cc1cc(C(=O)CN2C(=O)c3ccccc3S2(=O)=O)c(C)n1C(C)C,inactive
19,Fc1ccccc1-c1csc(=Nc2cccnc2)n1CCCn1ccnc1,7.45 µM
20,CCOc1ccc(/C=C2\SC(=S)N(CCCC(=O)NCCCN3CCOCC3)C2=O)cc1,inactive
21,CCc1ccc(-c2nc(CSCC(=O)NCc3ccco3)c(C)o2)cc1,inactive
22,O=C(Nc1nc2ccccc2s1)C1c2ccccc2Oc2ccccc21,inactive

row,SMILES,IC50
1,O=C(CCl)N(c1ccccc1)C1CCCCC1,inactive
2,CNc1ncnc(Sc2nc(N)nc3nc[nH]c23)c1[N+](=O)[O-],4.85 µM
3,Clc1ccc(-c2csc3ncnc(NCCN4CCOCC4)c23)cc1,8.01 µM
4,COc1cc(/C=N/NC(N)=S)cc(Br)c1OCc1ccccc1F,> 12 µM (inactive)
5,COC(=O)c1c(C)n(-c2ccc(OC)cc2)c2ccc(O)cc12,8.88 µM
6,CS(=O)c1nc(-c2ccc(Br)cc2)cc(-c2ccccc2)c1C#N (stereo unspecified),inactive
7,O=C(CCl)N(c1ccccc1)C1CCS(=O)(=O)C1 (stereo unspecified),inactive
8,CCOC(=O)C(C(C)=O)c1c(Br)c(O)c(O)c2c(C(=O)c3ccc(C)cc3)coc12 (stereo unspecified),4.28 µM
9,CN1CCN(c2ccc(NC(=O)N3CCc4ccccc43)cc2)CC1,inactive
10,O=C(NCc1ccccc1)c1c(Cl)nc(Cl)c(Cl)c1Cl,inactive
11,CC(=O)c1cccc(NC(=O)Nc2ccc3c(c2)N(C)C(=O)CS3)c1,inactive
12,COc1cc(C(=O)N/N=C(\c2ccccc2)c2ccccn2)cc(OC)c1OC,7.23 µM
13,COc1ccc(OC)c(Cc2cnc3nc(N)nc(N)c3c2C)c1,> 35.9 µM (inactive)
14,COc1ccc(/C=C2\CN(Cc3ccccc3)C/C(=C\c3ccc(OC)c(O)c3)C2=O)cc1O,inactive
15,Cc1ccc(NC(=O)c2cc(C)n(-c3ccccc3)c2C)cc1,0.223 µM
16,COc1cc(NS(C)(=O)=O)ccc1Nc1c2ccccc2nc2ccccc12,> 35.9 µM (inactive)
17,Nc1ncccc1C(=O)OCC(=O)N1CCN(S(=O)(=O)c2ccc(Cl)cc2)CC1,9.87 µM
18,CCCCC(=O)NC(c1ccc(Cl)cc1Cl)c1ccc2cccnc2c1O (stereo unspecified),4.78 µM
19,COc1cc2c(c(OC)c1OC)-c1ccc(SC)c(=O)cc1C(NC=O)CC2 (stereo unspecified),inactive
20,O=C(N/N=C\c1ccc([N+](=O)[O-])o1)C1COc2ccccc2O1 (stereo unspecified),inactive
21,NC(=O)c1cc(Sc2ccccc2)nc2ccccc12,inactive
22,COc1cc2[nH]c3c(Cl)ncnc3c2cc1OC,inactive

row,SMILES,IC50
1,O=C(c1ccncc1)N(Cc1cc2ccccc2[nH]c1=O)C1CCCCC1,7.96 µM
2,O=c1[nH]cnc2c1nnn2C1OC(CO)C(O)C1O (stereo unspecified),inactive
3,CCOc1ccc(CC(=O)Nc2ccc(NC(=O)c3ccco3)cc2)cc1OCC,7.73 µM
4,COc1cc([C@@H]2c3cc4c(cc3[C@@H](O[C@@H]3O[C@@H]5CO[C@@H](C)O[C@H]5[C@H](O)[C@H]3O)[C@H]3COC(=O)[C@H]23)OCO4)cc(OC)c1O,> 35.9 µM (inactive)
5,NC(=O)c1sc2nc3c(c(-c4ccco4)c2c1N)CCC3,3.1 µM
6,CCOc1ccc(/C=C2\SC(=S)N(CCC(=O)O)C2=O)cc1,> 35.9 µM (inactive)
7,O=c1[nH]c2ccccc2n1C1CCN(C(c2ccccc2)c2nnnn2-c2ccc3c(c2)OCCO3)CC1 (stereo unspecified),inactive
8,O=c1[nH]c2ccccc2n1C1CCN(C(c2ccccc2)c2nnnn2Cc2ccccc2)CC1 (stereo unspecified),inactive
9,CC(C)(C)c1ccc(Oc2ccc(N)cn2)cc1,inactive
10,CS(=O)(=O)c1ccc(Sc2nc3ccccc3s2)c([N+](=O)[O-])c1,> 35.9 µM (inactive)
11,c1ccc(-c2noc(-c3ccc4ccccc4c3)n2)nc1,6.07 µM
12,COc1cccc(-c2nnc3sc(C4CCCCC4)nn23)c1,9.52 µM
13,Cc1ccc(-n2c(C)cc(C(=O)COc3cccnc3[N+](=O)[O-])c2C)cc1,inactive
14,C#CC(=O)N(c1cc(OC)ccc1OC)C(C(=O)NC1CCCC1)c1cccs1 (stereo unspecified),> 35.9 µM (inactive)
15,CN[C@H]1CCc2cc(OC)c(OC)c(OC)c2-c2ccc(OC)c(=O)cc21,> 35.9 µM (inactive)
16,O=S(=O)(/C(=C\c1ccc(C(F)(F)F)cc1)c1nc2ccccc2[nH]1)c1ccccc1,3.93 µM
17,OCCN1CCN(C(=S)c2ccc(-c3ccccc3)cc2)CC1,> 35.9 µM (inactive)
18,C=CCOc1ccc(/C=C2\SC(=S)N(CCC(=O)O)C2=O)cc1,> 35.9 µM (inactive)
19,CC(C)(C)c1cc(C(=O)N/N=C/c2ccc(O)cc2)n(-c2ccccc2)n1,inactive
20,C=CS(=O)(=O)N(Cc1ccc(Cl)c(Cl)c1)C[C@@H](O)CO,inactive
21,COc1cccc(/C=N/Nc2ccc([N+](=O)[O-])cn2)c1O,4.48 µM
22,O=C(CCl)Nc1cccc(-c2cnc3ccccc3n2)c1,inactive

row,SMILES,IC50
1,Cc1ccc(N(CCC#N)C(=O)CCl)cc1C,> 12 µM (inactive)
2,O=C(CC(Nc1ccc(Cl)cc1Cl)C(=O)O)c1ccccc1 (stereo unspecified),4.77 µM
3,O=C(CC1CS(=O)(=O)CC1CC(=O)Nc1ccc2c(c1)OCCO2)Nc1ccc2c(c1)OCCO2 (stereo unspecified),inactive
4,CC(=O)c1ccc(Nc2c3c(nc4ccccc24)CCCC3)cc1,inactive
5,CC(=O)N1CCN(c2ncnc3ccccc23)CC1,inactive
6,O=C(CCl)NC(Cc1ccccc1)c1ccccc1 (stereo unspecified),inactive
7,Nc1nccc(-c2ccc(-n3cnc4ccccc43)cc2)n1,7.5 µM
8,COc1cc(/C=N/NC(=Nc2ccc(C)cc2)c2nc3ccccc3s2)ccc1O,inactive
9,C=CCOn1c(C)c(C(C)=O)c2c3nonc3ccc21,7.3 µM
10,Nc1ccc(-c2cc3ccccc3oc2=O)cc1,> 35.9 µM (inactive)
11,O=C(OCc1ccccc1)c1ccc(NCc2cc(O)ccc2O)cc1,5.95 µM
12,N#Cc1c2ccc(O)cc2n2ccccc12,> 35.9 µM (inactive)
13,COc1cc(/C=C(/C(=O)c2cccs2)c2nc3ccccc3[nH]2)cc(OC)c1O,8.01 µM
14,O=[N+]([O-])c1ccc(N(CCO)CCO)c2c1no[n+]2[O-],5.59 µM
15,COc1cc2c(cc1OC)C(C)N(C(=O)c1cccc([N+](=O)[O-])c1)CC2 (stereo unspecified),8.56 µM
16,O=C(Nc1ccccc1Oc1ccccc1)c1cc([N+](=O)[O-])ccc1Cl,inactive
17,CCOc1ccccc1-n1c(SCC(=O)Nc2ccccc2C(=O)O)nc2ccccc2c1=O,inactive
18,Cc1nc(N2CCC(C(N)=O)CC2)c2c(-c3cccs3)csc2n1,inactive
19,O=C(N/N=C(\c1ccccc1)c1ccccn1)c1ccccc1Cl,8.52 µM
20,CCOc1ccc(-c2cc(C)n3nc(C(N)=O)cc3n2)cc1,inactive
21,COc1ccc(C(C(=O)NC2CCCCC2)N(C(=O)CCl)c2ccc(Cl)cc2)cc1 (stereo unspecified),5.27 µM
22,Nc1nc2c(nnn2C2CC(O)C(CO)O2)c(=O)[nH]1 (stereo unspecified),inactive

row,SMILES,IC50
1,CCOc1cc(/C=C2\CCC/C(=C\c3cc(Cl)c(O)c(OCC)c3)C2=O)cc(Cl)c1O,4.82 µM
2,CC(C)(C)n1ncc2c(=O)n(CC(=O)OCc3ccccc3)cnc21,inactive
3,C=CC[n+]1c(-c2ccc(C)cc2)csc1Nc1ccc(NC(C)=O)cc1,> 35.9 µM (inactive)
4,COC(=O)c1cccc2c1-c1ccccc1/C2=N/O,5.73 µM
5,Cc1nc([N+](=O)[O-])c(Sc2nc3ccccc3n2C)n1Cc1ccccc1,inactive
6,CCn1nc(/C=C/c2ccccc2)nc2c(=O)n(C)c(=O)nc1-2,5.14 µM
7,CN(Cc1cnc2nc(N)nc(N)c2n1)c1ccc(C(=O)NC(CCC(=O)O)C(=O)O)c2ccccc12 (stereo unspecified),> 35.9 µM (inactive)
8,Cc1c(Cl)cccc1NC(=O)Nc1ccccc1C(N)=O,> 35.9 µM (inactive)
9,COc1ccc(-n2cnc3c(sc4nccc(N(C)C)c43)c2=O)cc1,inactive
10,O=[N+]([O-])c1nn(-c2ccc3c(c2)OCCO3)n(O)c1=Nc1ccccc1,9.18 µM
11,Cc1ccc(C(=O)O/N=C(\N)c2ccccn2)c(Cl)c1,inactive
12,Cc1ccc(OCC(=O)c2cc(C)n(-c3ccccc3)c2C)c([N+](=O)[O-])n1,inactive
13,Nc1ncnc(NCc2ccccc2)c1[N+](=O)[O-],inactive
14,CCCC(=O)NC(c1ccc(Cl)cc1)c1ccc2cccnc2c1O (stereo unspecified),4.4 µM
15,COCCNC(=O)c1cc(-c2ccccn2)nc2ccc(S(=O)(=O)N3CCC(C)CC3)cc12,> 35.9 µM (inactive)
16,CC1CCN(C2=NC(=O)/C(=C/c3ccccc3F)S2)CC1,inactive
17,CN(C)/C=C/C(=O)c1ccc2noc(-c3ccccc3)c2c1,inactive
18,O=C(NC(NC(=S)N1CCOCC1)C(Cl)(Cl)Cl)c1ccc(Cl)cc1 (stereo unspecified),> 35.9 µM (inactive)
